# Results taken from PubChem BioAssay (NCI).
#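 1) Cells in 96-well plates. 2) Compound, 48 h, 5 concentrations. 3) Linear interpolation between surrounding doses. 4) Unreached endpoint = highest concentration. GI50 marks 50% less growth. At the TGI there is no net growth.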
# Assays:
# Test in all cases: growth of human tumour cells (NCI), 48 h
# SNB-75 CNS = tested on: SNB-75 CNS
# SK-MEL-5 melanoma = tested on: SK-MEL-5 melanoma
# RXF 393 renal = tested on: RXF 393 renal
# ACHN renal = tested on: ACHN renal
# HS 578T breast = tested on: HS 578T breast
# MCF7 breast = tested on: MCF7 breast
# HCT-15 colon = tested on: HCT-15 colon
# OVCAR-8 ovarian = tested on: OVCAR-8 ovarian
# NCI-H522 lung = tested on: NCI-H522 lung
# CCRF-CEM leukemia = tested on: CCRF-CEM leukemia
# HCC-2998 colon = tested on: HCC-2998 colon
# 786-0 renal = tested on: 786-0 renal
# NCI-H23 lung = tested on: NCI-H23 lung
# SK-OV-3 ovarian = tested on: SK-OV-3 ovarian
# K-562 leukemia = tested on: K-562 leukemia
# TK-10 renal = tested on: TK-10 renal
# IGROV1 ovarian = tested on: IGROV1 ovarian
# SF-295 CNS = tested on: SF-295 CNS
# A498 renal = tested on: A498 renal
# OVCAR-4 ovarian = tested on: OVCAR-4 ovarian
# UACC-257 melanoma = tested on: UACC-257 melanoma
# U251 CNS = tested on: U251 CNS
# OVCAR-3 ovarian = tested on: OVCAR-3 ovarian
# MDA-MB-231 breast = tested on: MDA-MB-231 breast
# HCT-116 colon = tested on: HCT-116 colon
# SF-539 CNS = tested on: SF-539 CNS
# HL-60(TB) leukemia = tested on: HL-60(TB) leukemia
# SF-268 CNS = tested on: SF-268 CNS
# SNB-19 CNS = tested on: SNB-19 CNS
# SR leukemia = tested on: SR leukemia
# NCI-H460 lung = tested on: NCI-H460 lung
# M14 melanoma = tested on: M14 melanoma
# RPMI-8226 leukemia = tested on: RPMI-8226 leukemia
# SN12C renal = tested on: SN12C renal
# DU-145 prostate = tested on: DU-145 prostate
# NCI/ADR-RES ovarian = tested on: NCI/ADR-RES ovarian
# COLO 205 colon = tested on: COLO 205 colon
# LOX IMVI melanoma = tested on: LOX IMVI melanoma
# SW-620 colon = tested on: SW-620 colon
# A549 NSCLC = tested on: A549 NSCLC
# HOP-92 NSCLC = tested on: HOP-92 NSCLC
# SK-MEL-2 melanoma = tested on: SK-MEL-2 melanoma
# MALME-3M melanoma = tested on: MALME-3M melanoma
# EKVX NSCLC = tested on: EKVX NSCLC
# PC-3 prostate = tested on: PC-3 prostate
# MDA-MB-435 = tested on: MDA-MB-435
# MOLT-4 leukemia = tested on: MOLT-4 leukemia
# T-47D breast = tested on: T-47D breast
# UACC-62 melanoma = tested on: UACC-62 melanoma
# SK-MEL-28 melanoma = tested on: SK-MEL-28 melanoma
# HOP-62 NSCLC = tested on: HOP-62 NSCLC
# UO-31 renal = tested on: UO-31 renal
# CAKI-1 renal = tested on: CAKI-1 renal
# OVCAR-5 ovarian = tested on: OVCAR-5 ovarian
# KM12 colon = tested on: KM12 colon
# HT29 colon = tested on: HT29 colon
# NCI-H226 lung = tested on: NCI-H226 lung
smiles,measurement,setting,value
COc1ccc2cc1Oc1ccc(cc1)C[C@@H]1c3cc(c(OC)cc3CCN1C)Oc1c(OC)c(OC)cc3c1[C@H](C2)N(C)CC3,TGI,SNB-75 CNS,27.3 µM
same,TGI,SK-MEL-5 melanoma,25.1 µM
same,TGI,RXF 393 renal,13.7 µM
same,TGI,ACHN renal,28.5 µM
same,TGI,HS 578T breast,42.3 µM
same,TGI,MCF7 breast,31 µM
same,TGI,HCT-15 colon,25.1 µM
same,TGI,OVCAR-8 ovarian,35.6 µM
same,TGI,NCI-H522 lung,33.4 µM
same,TGI,CCRF-CEM leukemia,51.8 µM
same,TGI,HCC-2998 colon,25.8 µM
same,TGI,786-0 renal,89.6 µM
same,TGI,NCI-H23 lung,34.1 µM
same,TGI,SK-OV-3 ovarian,> 100 µM
same,TGI,K-562 leukemia,23 µM
same,TGI,TK-10 renal,39.5 µM
same,TGI,IGROV1 ovarian,72.9 µM
same,TGI,SF-295 CNS,34.2 µM
same,TGI,A498 renal,42.5 µM
same,TGI,OVCAR-4 ovarian,55.6 µM
same,TGI,UACC-257 melanoma,28.9 µM
same,TGI,U251 CNS,> 100 µM
same,TGI,OVCAR-3 ovarian,> 100 µM
same,TGI,MDA-MB-231 breast,29.9 µM
same,TGI,HCT-116 colon,> 100 µM
same,TGI,SF-539 CNS,23.6 µM
same,TGI,HL-60(TB) leukemia,30.8 µM
same,TGI,SF-268 CNS,60.8 µM
same,TGI,SNB-19 CNS,50 µM
same,TGI,SR leukemia,9.91 µM
same,TGI,NCI-H460 lung,29.7 µM
same,TGI,M14 melanoma,37.1 µM
CCCCCCCCN=C(NCCCCCCCC)SCc1cccc2ccccc12,GI50,SNB-75 CNS,1.66 µM
same,TGI,SNB-75 CNS,3.18 µM
same,GI50,RPMI-8226 leukemia,2.05 µM
same,TGI,RPMI-8226 leukemia,4.4 µM
same,GI50,SN12C renal,1.27 µM
same,TGI,SN12C renal,2.63 µM
same,GI50,DU-145 prostate,1.8 µM
same,TGI,DU-145 prostate,3.29 µM
same,GI50,NCI/ADR-RES ovarian,1.62 µM
same,TGI,NCI/ADR-RES ovarian,3.05 µM
same,GI50,SK-MEL-5 melanoma,1.47 µM
same,TGI,SK-MEL-5 melanoma,2.8 µM
same,GI50,COLO 205 colon,1.48 µM
same,TGI,COLO 205 colon,2.95 µM
same,GI50,RXF 393 renal,1.42 µM
same,TGI,RXF 393 renal,2.78 µM
same,GI50,LOX IMVI melanoma,1.59 µM
same,TGI,LOX IMVI melanoma,3.08 µM
same,GI50,SW-620 colon,1.65 µM
same,TGI,SW-620 colon,3.36 µM
same,GI50,A549 NSCLC,1.67 µM
same,TGI,A549 NSCLC,3.13 µM
same,GI50,HOP-92 NSCLC,1.03 µM
same,TGI,HOP-92 NSCLC,2.28 µM
same,GI50,HS 578T breast,1.61 µM
same,TGI,HS 578T breast,3.81 µM
same,GI50,MCF7 breast,1.34 µM
same,TGI,MCF7 breast,2.8 µM
same,GI50,SK-MEL-2 melanoma,2.14 µM
same,TGI,SK-MEL-2 melanoma,3.77 µM
same,GI50,HCT-15 colon,1.19 µM
same,TGI,HCT-15 colon,3.09 µM
same,GI50,MALME-3M melanoma,1.46 µM
same,TGI,MALME-3M melanoma,3.68 µM
same,GI50,OVCAR-8 ovarian,1.64 µM
same,TGI,OVCAR-8 ovarian,3.11 µM
same,GI50,EKVX NSCLC,1.79 µM
same,TGI,EKVX NSCLC,3.49 µM
same,GI50,PC-3 prostate,1.49 µM
same,TGI,PC-3 prostate,2.89 µM
same,GI50,MDA-MB-435,1.58 µM
same,TGI,MDA-MB-435,3.03 µM
same,GI50,NCI-H522 lung,1.38 µM
same,TGI,NCI-H522 lung,2.87 µM
same,GI50,CCRF-CEM leukemia,2.35 µM
same,TGI,CCRF-CEM leukemia,9.69 µM
same,GI50,MOLT-4 leukemia,1.83 µM
same,TGI,MOLT-4 leukemia,4.19 µM
same,GI50,T-47D breast,1.55 µM
same,TGI,T-47D breast,3.01 µM
same,GI50,HCC-2998 colon,1.62 µM
same,TGI,HCC-2998 colon,3.05 µM
same,GI50,786-0 renal,1.24 µM
same,TGI,786-0 renal,2.7 µM
same,GI50,NCI-H23 lung,1.14 µM
same,TGI,NCI-H23 lung,2.52 µM
same,GI50,K-562 leukemia,0.975 µM
same,TGI,K-562 leukemia,3.26 µM
same,GI50,TK-10 renal,1.74 µM
same,TGI,TK-10 renal,3.2 µM
same,GI50,UACC-62 melanoma,1.72 µM
same,TGI,UACC-62 melanoma,3.22 µM
same,GI50,SK-MEL-28 melanoma,1.95 µM
same,TGI,SK-MEL-28 melanoma,3.44 µM
same,GI50,SF-295 CNS,1.51 µM
same,TGI,SF-295 CNS,3.02 µM
same,GI50,A498 renal,1.52 µM
same,TGI,A498 renal,2.9 µM
same,GI50,OVCAR-4 ovarian,1.32 µM
same,TGI,OVCAR-4 ovarian,2.64 µM
same,GI50,UACC-257 melanoma,1.75 µM
same,TGI,UACC-257 melanoma,3.33 µM
same,GI50,HOP-62 NSCLC,1.71 µM
same,TGI,HOP-62 NSCLC,3.13 µM
same,GI50,U251 CNS,1.59 µM
same,TGI,U251 CNS,2.98 µM
same,GI50,OVCAR-3 ovarian,1.72 µM
same,TGI,OVCAR-3 ovarian,3.21 µM
same,GI50,UO-31 renal,1.27 µM
same,TGI,UO-31 renal,2.86 µM
same,GI50,MDA-MB-231 breast,1.14 µM
same,TGI,MDA-MB-231 breast,2.55 µM
same,GI50,CAKI-1 renal,1.56 µM
same,TGI,CAKI-1 renal,2.97 µM
same,GI50,HCT-116 colon,0.73 µM
same,TGI,HCT-116 colon,2.01 µM
same,GI50,HL-60(TB) leukemia,1.23 µM
same,TGI,HL-60(TB) leukemia,3.01 µM
same,GI50,OVCAR-5 ovarian,1.36 µM
same,TGI,OVCAR-5 ovarian,2.79 µM
same,GI50,SF-268 CNS,1.83 µM
same,TGI,SF-268 CNS,3.37 µM
same,GI50,SNB-19 CNS,1.83 µM
same,TGI,SNB-19 CNS,3.45 µM
same,GI50,SR leukemia,0.427 µM
same,TGI,SR leukemia,2.39 µM
same,GI50,NCI-H460 lung,1.69 µM
same,TGI,NCI-H460 lung,3.38 µM
same,GI50,M14 melanoma,1.44 µM
same,TGI,M14 melanoma,2.86 µM
same,GI50,KM12 colon,1.68 µM
same,TGI,KM12 colon,3.19 µM
same,GI50,HT29 colon,0.839 µM
same,TGI,HT29 colon,2.16 µM
same,GI50,NCI-H226 lung,1.52 µM
same,TGI,NCI-H226 lung,2.95 µM
